Patent publication US20240025922A1, “TETRAHYDROPYRIDO[3,4-d]PYRIMIDINES AS HPK1 INHIBITORS” (Merck Patent GmbH, priority 2022, published 2024)
Like-named read-outs stand apart in the source and are kept apart here.

Key:
[1] = molecular target: HPK1 (SLP76 phosphorylation at Ser376 in Jurkat and EL-4 cells) (Homo sapiens, UniProt Q92918); type: cell-based
Method in brief: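 Phospho-SLP76 (Ser376) in lysates measured by AlphaLISA for human Jurkat and by 19 h HTRF for mouse EL-4, giving % inhibition and IC50. Compounds applied 60 min before αCD3/αCD28 bead stimulation at 37 °C, lasting 15 min (Jurkat) or 30 min (EL-4).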

[2] = molecular target: full-length human HPK1 (MAP4K1) (Homo sapiens (Human), UniProt Q92918); experiment: HPK1 Kinase Assay (Biochemical Assay), ADP-Glo; conditions: GST-HPK1 3.2 nM, 10 μM ATP, MBP substrate, read-out: HPK1 enzymatic IC50
Method in brief: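 ADP-Glo luminescence after a 120-min kinase reaction gave percent inhibition and IC50. The enzyme was Sf21-expressed N-terminal GST full-length human HPK1 at 3.2 nM in HEPES pH 7.5 buffer with MgCl2, DTT, Brij-35 and BSA.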

[3] = αCD3/αCD28 Dynabeads stimulated cells, pSLP76 (Ser376) detection; read-out: HPK1 pSLP76 IC50
[4] = read-out: HPK1 pSLP76 IC50; αCD3/αCD28 Dynabeads stimulated cells, pSLP76 (Ser376) detection

Chain of HPK1 (SLP76 phosphorylation at Ser376 in Jurkat and EL-4 cells) (Q92918 whole entry, looked up): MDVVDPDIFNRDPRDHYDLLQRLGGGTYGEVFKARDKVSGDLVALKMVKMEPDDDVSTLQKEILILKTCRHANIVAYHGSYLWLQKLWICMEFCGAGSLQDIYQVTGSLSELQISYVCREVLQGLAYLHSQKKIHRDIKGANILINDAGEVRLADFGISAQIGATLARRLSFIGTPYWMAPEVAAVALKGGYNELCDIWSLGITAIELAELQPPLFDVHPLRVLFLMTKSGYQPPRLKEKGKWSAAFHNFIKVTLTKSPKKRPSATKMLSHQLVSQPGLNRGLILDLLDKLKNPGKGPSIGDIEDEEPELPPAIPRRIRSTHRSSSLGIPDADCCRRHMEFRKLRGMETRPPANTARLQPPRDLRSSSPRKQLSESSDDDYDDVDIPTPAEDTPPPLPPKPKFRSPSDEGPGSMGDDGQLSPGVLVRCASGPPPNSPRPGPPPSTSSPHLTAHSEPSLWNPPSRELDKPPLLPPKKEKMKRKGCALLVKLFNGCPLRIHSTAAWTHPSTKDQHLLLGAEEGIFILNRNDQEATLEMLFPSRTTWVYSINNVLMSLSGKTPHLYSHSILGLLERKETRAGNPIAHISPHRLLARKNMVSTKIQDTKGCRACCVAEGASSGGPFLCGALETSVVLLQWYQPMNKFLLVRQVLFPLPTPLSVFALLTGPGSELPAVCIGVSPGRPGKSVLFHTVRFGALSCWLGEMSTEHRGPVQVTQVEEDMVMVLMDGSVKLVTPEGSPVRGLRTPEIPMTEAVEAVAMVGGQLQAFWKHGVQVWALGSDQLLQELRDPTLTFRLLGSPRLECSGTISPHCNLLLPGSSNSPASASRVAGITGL
Chain of full-length human HPK1 (MAP4K1) (Q92918 whole entry): as the sequence (Q92918 whole entry, looked up) above

SMILES	IC50 [1, 3] [nM]	IC50 [2] [nM]	IC50 [1, 4] [nM]
Cc1cc(Nc2ncc3c(n2)CN(c2cnc4c(c2C)NCCO4)CC3)ccc1CS(C)(=O)=O [Example 178, N-[4-(methanesulfonylmethyl)-3-methylphenyl]-7-{8-methyl-1H,2H,3H-pyrido[2,3-b][1,4]oxazin-7-yl}-5H,6H,7H,8H-pyrido[3,4-d]pyrimidin-2-amine]	< 500	< 100	
Cc1c(N2CCc3cnc(Nc4ccc(NCCN5CCOCC5)c(F)c4)cc3C2)cnc2c1NCCO2 [Example 4, 2-fluoro-N4-(6-{8-methyl-1H,2H,3H-pyrido[2,3-b][1,4]oxazin-7-yl}-5,6,7,8-tetrahydro-2,6-naphthyridin-3-yl)-N1-[2-(morpholin-4-yl)ethyl]benzene-1,4-diamine]	< 500	< 100	
Cc1c(N2CCc3cnc(Nc4cnc(CS(C)(=O)=O)c(F)c4)nc3C2)cnc2c1NCCO2 [Example 19, 5-fluoro-6-(methanesulfonylmethyl)-N-(7-{8-methyl-1H,2H,3H-pyrido[2,3-b][1,4]oxazin-7-yl}-5H,6H,7H,8H-pyrido[3,4-d]pyrimidin-2-yl)pyridin-3-amine]	< 500	< 100	
Cc1c(N2CCc3cnc(Nc4ccc(CS(N)(=O)=O)cc4)nc3C2)cnc2c1NCCO2 [Example 128, {4-[(7-{8-methyl-1H,2H,3H-pyrido[2,3-b][1,4]oxazin-7-yl}-5H,6H,7H,8H-pyrido[3,4-d]pyrimidin-2-yl)amino]phenyl}methanesulfonamide]	< 500	< 100	
Cc1c(N2CCc3cnc(Nc4cnc5c(c4)CN(CC(F)F)CC5)nc3C2)cnc2c1NCCO2 [Example 105, N-(6-(2,2-difluoroethyl)-5,6,7,8-tetrahydro-1,6-naphthyridin-3-yl)-7-(8-methyl-2,3-dihydro-1H-pyrido[2,3-b][1,4]oxazin-7-yl)-5,6,7,8-tetrahydropyrido[3,4-d]pyrimidin-2-amine]	500 to 1000	< 100	
Cc1cc(Nc2cc3c(cn2)CCN(c2cnc4c(c2C)NCCO4)C3)ccc1NCCN(C)C [Example 14, N1-[2-(dimethylamino)ethyl]-2-methyl-N4-(6-{8-methyl-1H,2H,3H-pyrido[2,3-b][1,4]oxazin-7-yl}-5,6,7,8-tetrahydro-2,6-naphthyridin-3-yl)benzene-1,4-diamine]	< 500	< 100	
Cc1c(N2CCc3cnc(Nc4cccc(CN5CCN(C)CC5)c4)nc3C2)cnc2c1NCCO2 [Example 66, 7-{8-methyl-1H,2H,3H-pyrido[2,3-b][1,4]oxazin-7-yl}-N-{3-[(4-methylpiperazin-1-yl)methyl]phenyl}-5H,6H,7H,8H-pyrido[3,4-d]pyrimidin-2-amine]	500 to 1000	< 100	
Cc1c(N2CCc3cnc(Nc4ccc(NC(=O)CN(C)C)nc4)nc3C2)cnc2c1NCCO2 [Example 56, 2-(dimethylamino)-N-(5-((7-(8-methyl-2,3-dihydro-1H-pyrido[2,3-b][1,4]oxazin-7-yl)-5,6,7,8-tetrahydropyrido[3,4-d]pyrimidin-2-yl)amino)pyridin-2-yl)acetamide]		< 100	< 500
Cc1c(N2CCc3cnc(Nc4ccc(CC#N)cc4)nc3C2)cnc2c1NCCO2 [Example 148, 2-{4-[(7-{8-methyl-1H,2H,3H-pyrido[2,3-b][1,4]oxazin-7-yl}-5H,6H,7H,8H-pyrido[3,4-d]pyrimidin-2-yl)amino]phenyl}acetonitrile; formic acid]	< 500	< 100	
Cc1cc(Nc2ncc3c(n2)CN(c2cnc4c(c2C)NCCO4)CC3)cnc1NCCN1CCOCC1 [Example 36, 3-methyl-N5-(7-{8-methyl-1H,2H,3H-pyrido[2,3-b][1,4]oxazin-7-yl}-5H,6H,7H,8H-pyrido[3,4-d]pyrimidin-2-yl)-N2-[2-(morpholin-4-yl)ethyl]pyridine-2,5-diamine]	500 to 1000	< 100	
Cc1c(N2CCc3cnc(Nc4ccc(CCS(C)(=O)=O)cc4)nc3C2)cnc2c1NCCO2 [Example 161, N-[4-(2-methanesulfonylethyl)phenyl]-7-{8-methyl-1H,2H,3H-pyrido[2,3-b][1,4]oxazin-7-yl}-5H,6H,7H,8H-pyrido[3,4-d]pyrimidin-2-amine]	< 500	< 100	
Cc1c(N2CCc3cnc(Nc4ccc(CS(=O)(=O)CC5(C)COC5)cc4)nc3C2)cnc2c1NCCO2 [Example 41, 7-{8-methyl-1H,2H,3H-pyrido[2,3-b][1,4]oxazin-7-yl}-N-(4-{[(3-methyloxetan-3-yl)methanesulfonyl]methyl}phenyl)-5H,6H,7H,8H-pyrido[3,4-d]pyrimidin-2-amine]	< 500	< 100	
Cc1c(N2CCc3cnc(Nc4ccc(C5(S(C)(=O)=O)CC5)nc4)nc3C2)cnc2c1NCCO2 [Example 18, 6-(1-methanesulfonylcyclopropyl)-N-(7-{8-methyl-1H,2H,3H-pyrido[2,3-b][1,4]oxazin-7-yl}-5H,6H,7H,8H-pyrido[3,4-d]pyrimidin-2-yl)pyridin-3-amine]	500 to 1000	< 100	
Cc1c(N2CCc3cnc(Nc4ccc5c(c4)CNC5(C)C)nc3C2)cnc2c1NCCO2 [Example 13, 1,1-dimethyl-N-(7-{8-methyl-1H,2H,3H-pyrido[2,3-b][1,4]oxazin-7-yl}-5H,6H,7H,8H-pyrido[3,4-d]pyrimidin-2-yl)-2,3-dihydro-1H-isoindol-5-amine]	< 500	< 100	
Cc1c(N2CCc3cnc(Nc4ccc(OCCN5CCOCC5)cc4)nc3C2)cnc2c1NCCO2 [Example 97, 7-(8-methyl-2,3-dihydro-1H-pyrido[2,3-b][1,4]oxazin-7-yl)-N-(4-(2-morpholinoethoxy)phenyl)-5,6,7,8-tetrahydropyrido[3,4-d]pyrimidin-2-amine]		< 100	500 to 1000
Cc1c(N2CCc3cnc(Nc4cnc(CS(C)(=O)=O)c(Cl)c4)nc3C2)cnc2c1NCCO2 [Example 5, 5-chloro-6-(methanesulfonylmethyl)-N-(7-{8-methyl-1H,2H,3H-pyrido[2,3-b][1,4]oxazin-7-yl}-5H,6H,7H,8H-pyrido[3,4-d]pyrimidin-2-yl)pyridin-3-amine]	> 1000	< 100	
Cc1c(N2CCc3cnc(Nc4ccc(CS(C)(=O)=O)cc4)nc3C2)cnc2c1NCCC2O (stereo not drawn) [Example 143, 7-(2-{[4-(methanesulfonylmethyl)phenyl]amino}-5H,6H,7H,8H-pyrido[3,4-d]pyrimidin-7-yl)-8-methyl-1,2,3,4-tetrahydro-1,5-naphthyridin-4-ol]	< 500	< 100	
COCCOCC(=O)Nc1ccc(Nc2ncc3c(n2)CN(c2cnc4c(c2C)NCCO4)CC3)cc1C [Example 162, 2-(2-methoxyethoxy)-N-{2-methyl-4-[(7-{8-methyl-1H,2H,3H-pyrido[2,3-b][1,4]oxazin-7-yl}-5H,6H,7H,8H-pyrido[3,4-d]pyrimidin-2-yl)amino]phenyl}acetamide]	< 500	< 100	
Cc1c(N2CCc3cnc(Nc4ccc(Cn5nccn5)cc4)nc3C2)cnc2c1NCCO2 [Example 185, 7-{8-methyl-1H,2H,3H-pyrido[2,3-b][1,4]oxazin-7-yl}-N-{4-[(2H-1,2,3-triazol-2-yl)methyl]phenyl}-5H,6H,7H,8H-pyrido[3,4-d]pyrimidin-2-amine]	< 500	< 100	
Cc1c(N2CCc3cnc(Nc4cccc(Cn5ccnc5)c4)nc3C2)cnc2c1NCCO2 [Example 191, N-{3-[(1H-imidazol-1-yl)methyl]phenyl}-7-{8-methyl-1H,2H,3H-pyrido[2,3-b][1,4]oxazin-7-yl}-5H,6H,7H,8H-pyrido[3,4-d]pyrimidin-2-amine]	< 500	< 100	
CCc1c(N2CCc3cnc(Nc4ccc(CS(C)(=O)=O)cc4)nc3C2)cnc2c1NCCO2 [Example 145, 7-{8-ethyl-1H,2H,3H-pyrido[2,3-b][1,4]oxazin-7-yl}-N-[4-(methanesulfonylmethyl)phenyl]-5H,6H,7H,8H-pyrido[3,4-d]pyrimidin-2-amine]	< 500	< 100	
Cc1cc(Nc2ncc3c(n2)CN(c2cnc4c(c2C)NCCO4)CC3)ccc1N(C)CCN1CCOCC1 [Example 17, N1,2-dimethyl-N4-(7-{8-methyl-1H,2H,3H-pyrido[2,3-b][1,4]oxazin-7-yl}-5H,6H,7H,8H-pyrido[3,4-d]pyrimidin-2-yl)-N1-[2-(morpholin-4-yl)ethyl]benzene-1,4-diamine; formic acid]	500 to 1000	< 100	
Cc1c(N2CCc3cnc(Nc4ccc5c(c4)CN(C)S(=O)(=O)C5)nc3C2)cnc2c1NCCO2 [Example 156, 3-methyl-6-[(7-{8-methyl-1H,2H,3H-pyrido[2,3-b][1,4]oxazin-7-yl}-5H,6H,7H,8H-pyrido[3,4-d]pyrimidin-2-yl)amino]-3,4-dihydro-1H-2?6,3-benzothiazine-2,2-dione]	< 500	< 100	
Cc1c(N2CCc3cnc(Nc4ccc(NCCN(C)C)c(F)c4)nc3C2)cnc2c1NCCO2 [Example 1, N1-[2-(dimethylamino)ethyl]-2-fluoro-N4-(7-{8-methyl-1H,2H,3H-pyrido[2,3-b][1,4]oxazin-7-yl}-5H,6H,7H,8H-pyrido[3,4-d]pyrimidin-2-yl)benzene-1,4-diamine]	< 500	< 100	
